From patent US10183937B2, “1,3-thiazol-2-yl substituted benzamides” (BAYER AKTIENGESELLSCHAFT, priority 2014, dated 2019)

Columns and labels:
[1] = In vitro metabolic stability in liver microsomes (calculation of CL and Fmax); format: in vitro ADME, human; settings: 1 μM, maximal oral bioavailability calculated from half-life
Protocol: In Vitro Metabolic Stability Assays Determination of In Vitro Metabolic Stability in Microsomes (Including Calculation of Hepatic In Vivo Blood Clearance (CL) and of Maximal Oral Bioavailability (Fmax))
The metabolic assay was started shortly afterwards by adding the test compound to the incubation at a final volume of 1 mL. Organic solvent in the incubations was limited to ≤0.01% dimethylsulfoxide (DMSO) and ≤1% acetonitrile. […] Samples were frozen at −20° C. overnight, subsequently centrifuged for 15 minutes at 3000 rpm and the supernatant was analyzed with an Agilent 1200 HPLC-system with LCMS/MS detection.
The half-life of a test compound was determined from the concentration-time plot. From the half-life (kel: slope of concentration-time plot; half-life=ln 2/kel) the intrinsic clearances were calculated. Together with the additional parameters liver blood flow, specific liver weight and microsomal protein content the hepatic in vivo blood clearance (CL) and the maximal oral bioavailability (Fmax) were calculated for the different species.
(§1) Metabolic instability is often the main clearance mechanism of xenobiotica leading to a high CL and low bioavailability which may eventually result in a short half-life and a low exposure after oral administration. Thus, reducing the susceptibility of metabolic degradation usually leads to a more favourable pharmacokinetic profile. When using liver microsomes as incubation matrix main phase I metabolic reactions, typically oxidoreductive reactions by cytochrome P450 enzymes and flavin mono-oxygenases (FMO) and hydrolytic reactions by esterases/amidases/epoxidhydrolases, are described. When the incubation of the test compound is performed in a hepatocyte matrix all potential hepatic metabolic processes (phase I and phase II) are covered.

[2] = tested on: rat hepatocytes; assay: In vitro metabolic stability in rat hepatocytes; format: in vitro ADME, Han Wistar rats; settings: 1 μM, maximal oral bioavailability calculated from half-life
Protocol: Determination of In Vitro Metabolic Stability in Rat Hepatocytes (Including Calculation of Hepatic In Vivo Blood Clearance (CL))
Hepatocytes from Han Wistar rats were isolated via a 2-step perfusion method. After perfusion, the liver was carefully removed from the rat: the liver capsule was opened and the hepatocytes were gently shaken out into a Petri dish with ice-cold Williams' medium E (WME). The resulting cell suspension was filtered through sterile gaze in 50 mL falcon tubes and centrifuged at 50×g for 3 min at room temperature. The cell pellet was resuspended in 30 mL WME and centrifuged through a Percoll® gradient for 2 times at 100×g. The hepatocytes were washed again with WME and resuspended in medium containing 5% FCS. Cell viability was determined by trypan blue exclusion. […] The test compound was added to a final concentration of 1 μM. […] Samples were frozen at −20° C. overnight, subsequently centrifuged for 15 minutes at 3000 rpm and the supernatant was analyzed with an Agilent 1200 HPLC-system with LCMS/MS detection.
The half-life of a test compound was determined from the concentration-time plot. From the half-life (kel: slope of concentration-time plot; half-life=ln 2/kel) the intrinsic clearances were calculated. Together with the additional parameters liver blood flow, amount of liver cells in vivo and in vitro.
as §1

[3] = Human liver cytosol stability assay; format: in vitro ADME; settings: 4 h incubation
Protocol: Human Liver Cytosol Stability Assay
Method description: Human liver cytosol (pooled, >30 male and female donors) was incubated with individual test compounds in order to compare the extent of depletion of test compound and formation of the respective oxidised metabolite.
An incubation volume of 1000 μL was used. The test compound was added from a stock solution in acetonitrile at 1 or 10 μM concentration in the incubation. Incubations were performed at 37° C. Reactions were stopped at 0 h and 4 h after incubation by addition of 100 μL acetonitrile to 250 μL of incubation mixture. Precipitated proteins were removed by centrifugation at approximately 3000 rpm. The supernatants were stored at approximately −20° C. until they were analysed. […]
Data analysis: The depletion of the test compound and formation of the corresponding metabolites were determined by decrease or increase of the corresponding peak area in the chromatogram after UV detection at approximately 300 nm 4 h after incubation compared to that at 0 h after incubation. […]

[4] = tested on: vaginal hyperalgesia; assay: Rat dyspareunia model (visceromotor response to vaginal distension); format: in vivo, Sprague Dawley rats; settings: 15 mg/kg oral b.i.d. during 2 weeks
Source text: The visceromotor response (VMR) to vaginal distension was used in conscious animals as an objective measure of vaginal sensitivity. […] To measure VMR response, 2 Teflon-coated wire electrodes were sutured in the external oblique abdominal muscle, and tunneled subcutaneously to be exteriorized at the base of the neck for future access. On the day of VMR assessment, a lubricated small balloon (1 cm length) was inserted into the mid-vaginal canal. The balloon catheter was secured to the base of the tail and connected to a volume controller/timing device (infusion pump) for balloon distension. The vaginal balloon was inflated to ramp intensities of distension (0.05 ml increments every 20 sec.) to a maximal volume of 0.8 ml. The electrodes were connected to an amplifier (Animal Bio Amp, ADInstruments), and the abdominal electromyographic signal was recorded using a data acquisition system (PowerLab, ADInstruments) for off-line analysis using LabChart version 7. The number of abdominal muscle contractions was counted manually for each 0.1 ml distension step, as an index of vaginal pain. […] All data were expressed as mean±standard deviation (s.d.), for the number (n) of measured rats per group. […] Planned comparison of means (matched-volume versus vehicle) was performed using a Bonferroni post hoc test, provided that a main effect was detected. […]

[5] = clinical PhII trials; attributed to blockade of P2X2/3 channels; cited from earlier work

Row | SMILES | Human liver microsome Fmax [1] | Rat hepatocyte Fmax [2] | Test compound turnover after 4 h [3] | Vaginal hyperalgesia compared to vehicle-treated animals [4] | taste side effect in treated subjects [5]
1 | Cc1cnc(-c2cc(O[C@H]3CCOC3)cc(C(=O)N[C@H](C)c3cnc(C(F)(F)F)nc3)c2)s1 [Example 26, 3-(5-Methyl-1,3-thiazol-2-yl)-5-[(3S)-tetrahydrofuran-3-yloxy]-N-{(1R)-1-[2-(trifluoromethyl)pyrimidin-5-yl]ethyl}benzamide] | 67% | 56% | 0.9% | – | –
2 | CCc1cnc(-c2cc(OC[C@H]3CN(C)CCO3)cc(C(=O)N[C@H](C)c3ccc(C(F)(F)F)nn3)c2)s1 [Example 419, 3-(5-ethyl-1,3-thiazol-2-yl)-5-{[(2R)-4-methyl-morpholin-2-yl]methoxy}-N-{(1R)-1-[6-(trifluoromethyl)pyridazin-3-yl]ethyl} benzamide] | 74% | 51% | – | – | –
3 | Cc1cnc(-c2cc(O[C@@H]3CCOC3)cc(C(=O)N[C@H](C)c3cnc(C(F)(F)F)nc3)c2)s1 [Example 11, 3-(5-Methyl-1,3-thiazol-2-yl)-5-[(3R)-tetrahydrofuran-3-yloxy]-N-{(1R)-1-[2-(trifluoromethyl)pyrimidin-5-yl]ethyl}benzamide] | 57% | 52% | 0.9% | decreased vaginal hyperalgesia compared to vehicle-treated animals | –
4 | Cc1cnc(-c2cc(OC(C)C(C)O)cc(C(=O)N[C@H](C)c3ccc(C(F)(F)F)nn3)c2)s1 (single isomer, unassigned) [Example 183] | 74% | 43% | – | – | –
5 | COc1cc(C(C)C)c(Oc2cnc(N)nc2N)cc1S(N)(=O)=O [AF-219] | – | – | – | – | taste disturbances

Continued, in another order:

Row | Human liver microsome Fmax [1] | Rat hepatocyte Fmax [2] | Test compound turnover after 4 h [3] | SMILES | Vaginal hyperalgesia compared to vehicle-treated animals [4] | taste side effect in treated subjects [5]
6 | 94% | 52% | – | Cc1cnc(-c2cc(OC(C)C(C)O)cc(C(=O)N[C@H](C)c3cnc(C(F)(F)F)nc3)c2)s1 (single isomer, unassigned) [Example 339] | – | –
7 | 90% | 64% | – | Cc1cnc(-c2cc(OC(C)C(C)O)cc(C(=O)N[C@H](C)c3cnc(C(F)(F)F)nc3)c2)s1 (single isomer, unassigned) [Example 340] | – | –
8 | 100% | 53% | – | Cc1cnc(-c2cc(OC(C)C(C)O)cc(C(=O)N[C@H](C)c3cnc(C(F)(F)F)nc3)c2)s1 (single isomer, unassigned) [Example 163] | – | –
